From patent US10174024B2, “5H-pyrido[3,2-B]indole compounds as anticancer agents” (BRISTOL-MYERS SQUIBB COMPANY, priority 2015, dated 2019) come the findings set out here.

SMILES strings stand for the structures.

The test has as its target BRD4 (Homo sapiens, UniProt O60885). As to the kind of experiment: Time Resolved Fluorescence Resonance Energy Transfer (TR-FRET) binding assay, FRET BRD4. As to conditions: one of the FRET assays described (BRD4 bromodomain construct not specified); read-out: FRET BRD4 IC50. In general terms: TR-FRET usually uses a lanthanide donor and a delayed reading to cut background.
For orientation: IC50 means the concentration that gives 50% inhibition. Take `[2H]C([2H])([2H])c1nnn(C)c1-c1ccc2c3ncc(-c4c(C([2H])([2H])[2H])nnn4C)cc3n(C(c3ncccc3F)C3CCOCC3)c2c1` (centres unmarked) [Example 28, 2-({3,7-Bis[4-(^2H3)methyl-1-methyl-1H-1,2,3-triazol-5-yl]-5H-pyrido[3,2-b]indol-5-yl}(oxan-4-yl)methyl)-3-fluoropyridine]: the IC50 was less than 5 nM.

For `[2H]C([2H])([2H])c1nnn(C)c1-c1cnc2c3ccc(N4CCS(=O)(=O)CC4)cc3n(C(c3ncccc3F)C3CCOCC3)c2c1` (centres unmarked) [Example 67, 4-{5-[(3-Fluoropyridin-2-yl)(oxan-4-yl)methyl]-3-[4-(^2H3)methyl-1-methyl-1H-1,2,3-triazol-5-yl]-5H-pyrido[3,2-b]indol-7-yl}-1λ^6,4-thiomorpholine-1,1-dione], the IC50 is less than 5 nM.

For `[2H]C([2H])([2H])c1nnn(C)c1-c1cnc2c3cc(N4CCN(S(C)(=O)=O)CC4)ccc3n([C@H](c3ccc(F)cc3)C3CCOCC3)c2c1` [Example 40, 1-{5-[(S)-(4-Fluorophenyl)(oxan-4-yl)methyl]-3-[4-(^2H3)methyl-1-methyl-1H-1,2,3-triazol-5-yl]-5H-pyrido[3,2-b]indol-8-yl}-4-methanesulfonylpiperazine], the IC50 is less than 1 nM.

Take `[2H]C([2H])([2H])c1nnn(C)c1-c1cnc2c3ccc(C4(O)CCNCC4)c(F)c3n([C@H](c3ccccc3)C3CCOCC3)c2c1` [Example 53, 4-{6-Fluoro-3-[4-(^2H3)methyl-1-methyl-1H-1,2,3-triazol-5-yl]-5-[(S)-oxan-4-yl(phenyl)methyl]-5H-pyrido[3,2-b]indol-7-yl}piperidin-4-ol]: the IC50 is less than 1 nM.

For `[2H]C([2H])([2H])c1nnn(C)c1-c1cnc2c3ccc(N4CCCC4=O)c(F)c3n([C@H](c3ccccc3)C3CCOCC3)c2c1` [Example 57, 1-{6-Fluoro-3-[4-(^2H3)methyl-1-methyl-1H-1,2,3-triazol-5-yl]-5-[(S)-oxan-4-yl(phenyl)methyl]-5H-pyrido[3,2-b]indol-7-yl}pyrrolidin-2-one], the IC50 was less than 1 nM.

In the case of `Cc1nnn(C)c1-c1cnc2c3c(N4CCCS4(=O)=O)ccc(S(C)(=O)=O)c3n([C@H](c3ccccc3)C3CCOCC3)c2c1` [Example 19, 2-[3-(Dimethyl-1H-1,2,3-triazol-5-yl)-6-methanesulfonyl-5-[(S)-oxan-4-yl(phenyl)methyl]-5H-pyrido[3,2-b]indol-9-yl]-1λ^6,2-thiazolidine-1,1-dione], the IC50 was less than 1 nM.

`Cc1noc(C)c1-c1cnc2c3cc(C4CCN(C(=O)CO)CC4)ccc3n([C@H](c3ccccc3)C3CCOCC3)c2c1` [Example 6, 1-{4-[3-(Dimethyl-1,2-oxazol-4-yl)-5-[(S)-oxan-4-yl(phenyl)methyl]-5H-pyrido[3,2-b]indol-8-yl]piperidin-1-yl}-2-hydroxyethan-1-one]: the IC50 is less than 5 nM.

Turning to `[2H]C([2H])([2H])c1nnn(C)c1-c1ccc2c3ncc(-c4c(C([2H])([2H])[2H])nnn4C)cc3n([C@H](c3ccccc3)C3CCOCC3)c2c1` [Example 31, 4-(^2H3)Methyl-1-methyl-5-{7-[4-(^2H3)methyl-1-methyl-1H-1,2,3-triazol-5-yl]-5-[(S)-oxan-4-yl(phenyl)methyl]-5H-pyrido[3,2-b]indol-3-yl}-1H-1,2,3-triazole], the IC50 is less than 1 nM.
